33 compounds from patent publication US8058243B2, “Method for treating a brain cancer with ifenprodil” (HSC Research and Development Limited Partnership, priority 2006, dated 2011) can be followed below.

In the experiment the test system is murine neural precursor cells (neurosphere cultures). The experiment in a line: HTS of LOPAC library against secondary neurosphere cultures, MTT proliferation assay at 3 μM, day 7 (z score, P value). It is filed as cell-based, mouse. (Tetrazolium dyes change colour on reduction, which living cells bring about.)
Setting [1] is: LOPAC library screen, 3 μM, MTT, neurosphere cultures.
The mark [2] stands for this setting: LOPAC screen, neurosphere MTT proliferation, 3 μM, day 7.
[3] abbreviates: yes/no: significantly inhibited neurosphere proliferation (P<0.01) in primary screen.
The mark [4] stands for this setting: primary LOPAC screen, 3 μM, MTT, neurosphere proliferation.
Setting [5] is: yes/no: significantly inhibited neurosphere proliferation in the primary screen.
Where [6] appears, read: LOPAC primary screen, neurosphere MTT proliferation, 3 μM, day 7.
[7] abbreviates: yes/no: significantly inhibited neurosphere proliferation (P<0.01) in the primary screen.
Setting [8] is: LOPAC library screen at 3 μM, secondary neurosphere cultures, MTT.
[9] abbreviates: yes/no: significantly inhibited neurosphere proliferation in primary screen.
[10] abbreviates: LOPAC library screen, 3 μM, MTT, secondary neurosphere cultures, day 7.
Where [11] appears, read: yes = significantly inhibited neurosphere proliferation (P<0.01) in the primary screen.

Counter-ions that a name gives are not always drawn. Like-named read-outs stand apart in the source and are kept apart here.

For `CN(C)[C@@H]1C(O)=C(C(N)=O)C(=O)[C@@]2(O)C(O)=C3C(=O)c4c(O)ccc(Cl)c4[C@@H](O)[C@H]3C[C@@H]12` [Demeclocycline hydrochloride], under setting [1], the “Z Score” value is given as −0.06452. The Z score under setting [2] is given as −0.065. The Activity entry under setting [3] was “no”.

As for `C[C@]12CCC(=O)C(O)=C1CC[C@@H]1[C@@H]2CC[C@]2(C)C(=O)CC[C@@H]12` [4-Androsten-4-ol-3,17-dione], the “Z Score” value came to 0.1944. Under setting [4], this compound yielded a Z score of 0.194. Further, under setting [5], the Activity entry is “no”.

In the case of `C=CCN1CC[C@]23c4c5ccc(O)c4O[C@H]2/C(=N/N=C2\CC[C@@]4(O)[C@H]6Cc7ccc(O)c8c7[C@@]4(CCN6CC=C)[C@H]2O8)CC[C@@]3(O)[C@H]1C5` [Naloxonazine dihydrochloride], the “Z Score” value was −0.6061. Under setting [6], this compound gave a Z score of −0.606. Besides, the Activity entry under setting [7] was “no”.

For the compound `CCn1cc(C(=O)O)c(=O)c2cc(F)c(N3CCNC(C)C3)c(F)c21` (stereo not drawn) [Lomefloxacin hydrochloride], the Activity result is “no”. Under setting [1], the “Z Score” value is reported as 0.1374. The compound also registered a Z score under setting [6] of 0.137.

For `NCCS(=O)O` [Hypotaurine], the Activity entry is reported as “no”, the “Z Score” value is on record as 0.2752 and the Z score is reported as 0.275.

For `COc1ccccc1N1CCN(CCN2C(=O)CC3(CCCC3)CC2=O)CC1` [BMY 7378 dihydrochloride], the “Z Score” value under setting [8] is on record as −0.6588. This compound returned a Z score under setting [2] of −0.659. Moreover, under setting [3], the Activity entry was “no”.

With `CCCCC/C=C\C[C@@H](O)/C=C/c1cccc(C[C@@H](O)CCCCO)n1` [U-75302], the “Z Score” value is −0.1722. The compound also returned a Z score under setting [4] of −0.172. For the same compound, the Activity entry under setting [5] is “no”.

As to `CC(=O)[C@H]1CC[C@H]2[C@@H]3CCC4=CC(=O)CC[C@]4(C)[C@H]3CC[C@]12C` [Progesterone], under setting [1], the “Z Score” value was 0.4252. Under setting [6], this compound gave a Z score of 0.425. The Activity result under setting [9] was “no”.

With `CCCn1c(=O)c2[nH]c(-c3ccc(S(=O)(=O)O)cc3)nc2n(CCC)c1=O` [1,3-Dipropyl-8-p-sulfophenylxanthine], the “Z Score” value is 4.743 and the Z score is on record as 4.743. Further, the Activity result under setting [5] is recorded as “no”.

For `O=C(c1ccc2c(c1)OCCO2)N1CCCCC1` [CX 546], the “Z Score” value is listed as −1.05. In addition, the Z score under setting [2] was −1.050. Under setting [3], the Activity result was “no”.

For the compound `O=C(O)c1ccccc1Nc1ccccc1` [N-Phenylanthranilic acid], the “Z Score” value under setting [10] is −1.61. The compound also gave a Z score under setting [6] of −1.610. Further, under setting [9], the Activity result is on record as “no”.

On to `CCc1cc(Cl)c(OC)c(C(=O)NC[C@@H]2CCCN2CC)c1O.Cl` [S-(−)-Eticlopride hydrohloride], for which the Z score under setting [6] is −5.158. The Activity entry under setting [7] is “yes”.

Take `Cn1c(=O)c2[nH]cnc2n(C)c1=O` [Theophylline]: the Activity result is on record as “no”. In addition, under setting [1], the “Z Score” value amounted to 0.3699. Further, the Z score under setting [4] amounted to 0.370.

In the case of `Nc1ccc(S(=O)(=O)Nc2ccnn2-c2ccccc2)cc1` [Sulfaphenazole], the “Z Score” value under setting [10] is listed as −1.362. The compound further gave a Z score under setting [6] of −1.362. For the same compound, the Activity entry under setting [9] is reported as “no”.

As for `CN1Cc2c(N)cccc2C(c2ccccc2)C1` (stereo not drawn) [Nomifensine maleate], the “Z Score” value under setting [1] came out at 0.6693. The Z score under setting [6] is recorded as 0.669. Under setting [11], the Activity entry is “no”.

Take `CCN(CCCl)Cc1ccccc1Br.Cl` [DSP-4 hydrochloride]: the “Z Score” value amounted to 1.518. This compound yielded a Z score under setting [6] of 1.518. Also, the Activity result under setting [7] is listed as “no”.

With `CC(C)N(CCC(=O)c1ccc2ccccc2c1)Cc1ccccc1` [ZM 39923 hydrochloride], the “Z Score” value under setting [1] turned out to be 0.7457. The compound further registered a Z score under setting [6] of 0.746. The Activity entry under setting [11] is listed as “no”.

With `Cl.Cl.NCCSSCCN` [Cystamine dihydrochloride], the “Z Score” value was found to be 2.23. Under setting [2], this compound came in with a Z score of 2.230. Further, the Activity entry under setting [3] is “no”.

Turning to `N.S=C(S)N1CCCC1` [Ammonium pyrrolidinedithiocarbamate], the Activity entry is “no”. The “Z Score” value under setting [8] is −0.4168. Also, the Z score under setting [6] is −0.417.

In the case of `COCC(=O)O[C@]1(CCN(C)CCCc2nc3ccccc3[nH]2)CCc2cc(F)ccc2[C@@H]1C(C)C` [Mibefradil dihydrochloride], the “Z Score” value under setting [1] is given as −0.02693. This compound yielded a Z score under setting [6] of −0.027. Further, the Activity result under setting [11] was “no”.

With `Cl.Oc1cc2c(cc1O)C(c1ccccc1)CNCC2` (stereo not drawn) [(B1)-SKF-38393 hydrochloride], the “Z Score” value turned out to be 1.28.

Consider `CCCC(C)(COC(N)=O)COC(=O)NC(C)C` (stereo not drawn) [Carisoprodol], for which the “Z Score” value is given as −1.795. In addition, the Z score under setting [2] is on record as −1.795. Besides, the Activity entry under setting [3] is given as “no”.

Take `CC(=O)C(C)=NO` [2,3-Butanedione monoxime]: under “168 h, 3 µM”, the “Z Score” value is reported as −1.81 and the Z score is listed as −1.810. In addition, under setting [5], the Activity entry is “no”.

`Nc1ccc2c3c(cccc13)C(=O)NC2=O` [4-Amino-1,8-naphthalimide]: for the setting “LOPAC library screen at 3 μM, MTT, secondary neurosphere cultures, screened in singlets”, the “Z Score” value was found to be 1.875. Moreover, under setting [6], the Z score is listed as 1.875. The Activity entry under setting [9] is listed as “no”.

For `CCN(CC)CC.Nc1ncnc2c1ncn2C1OC2COP(O)(=S)O[C@@H]2[C@@H]1O` (stereo partly drawn) [Rp-cAMPS triethylamine], the Activity result was “no”, the “Z Score” value was 1.186 and the Z score amounted to 1.186.

As to `S=C=Nc1ccc2oc(C3=NCCN3)cc2c1` [BU99006], the “Z Score” value was found to be 1.182. Moreover, the Z score under setting [6] was found to be 1.182. Also, the Activity result under setting [3] is “no”.

Regarding `O=C(Nc1ccc([N+](=O)[O-])cc1Cl)c1cc(Cl)ccc1O` [Niclosamide], the “Z Score” value under setting [10] is −2.784. Moreover, the Z score under setting [6] is recorded as −2.784. The Activity result under setting [7] was “yes”.

Regarding `COc1cc(C(=O)OCCCN2CCCN(CCCOC(=O)c3cc(OC)c(OC)c(OC)c3)CC2)cc(OC)c1OC` [Dilazep hydrochloride], the “Z Score” value under setting [1] came to 0.2448. The same compound yielded a Z score under setting [2] of 0.245. The Activity result under setting [3] was “no”.

Turning to `C[C@@]12C(=O)OC(=O)[C@]1(C)[C@H]1CC[C@@H]2O1` [Cantharidin], the “Z Score” value is recorded as −0.5781. This compound also showed a Z score under setting [2] of −0.578. Besides, under setting [3], the Activity result is “no”.

As for `NC/C=C/C(=O)O` [(E)-4-amino-2-butenoic acid], the “Z Score” value under setting [10] is −2.149. The same compound gave a Z score under setting [4] of −2.149. Further, under setting [5], the Activity entry was “no”.

Compound `CN(C)CCC(c1ccc(Br)cc1)c1ccccn1.O=C(O)/C=C\C(=O)O` (racemic) [(±)-Brompheniramine maleate] came in with a Z score under setting [6] of −3.530. In addition, the Activity result under setting [7] is “yes”.

Take `Cl.NCCCCNS(=O)(=O)c1ccc2c(Cl)cccc2c1` [N-(4-Aminobutyl)-5-chloro-2-naphthalenesulfonamide hydrochloride]: the “Z Score” value (168 h, 3 µM) is −0.9229.

On to `CCn1c(=O)c2[nH]c(-c3ccccc3)nc2n(CC)c1=O` [1,3-Diethyl-8-phenylxanthine], for which, for the setting “168 h, 3 µM”, the “Z Score” value was 2.005 and the Z score worked out at 2.005. Moreover, under setting [5], the Activity entry is “no”.
